Source: EP0146219A1, “Aminophosphonic & aminophosphinic acid derivatives processes for their preparation & herbicidal compositions containing them” (priority 1983, dated 1985)
Counter-ions that a name gives are not always drawn.

What was measured:
[1] = solubility and crystallization of the salts in water; format: physicochemical; conditions: for solubility: at room temperature
sinapis arvensis = test: soil-applied (pre-emergence) test in planted trays, visual percent inhibition; format: in vivo; conditions: Mutarda arvensis, 336 h, read-out: % inhibition. C; for inhibition at 1000 g/ha: rate 1.0 KG/HECTARE
Experimental: (§1) Plastic trays were planted with green cynondon dactylon, convolvulus arvensis and sinapis arvensis and covered with a good grade of top soil. All materials were applied with a laboratory sprayer that delivered a volume of 187 1/hectare. The trays of soil were thereafter watered lightly to activate the aminotriazole salts. The experiment was conducted twice and each was arranged in a completely random design with three replications. Visual estimates of percent inhibition were made at two weeks after treatment.

cynodon dactylon = test: as above; format: in vivo; conditions: 336 h; for inhibition at 1000 g/ha: rate 1.0 KG/HECTARE
Experimental: as §1

Convolvulus arvensis [2] = test: as above; format: in vivo; conditions: 336 h, read-out: % inhibition. B; for inhibition at 1000 g/ha: rate 1.0 KG/HECTARE
Experimental: as §1

various plant species = test: post-emergence herbicidal activity, overall comparison; format: in vivo; conditions: for herbicidal activity compared with the related amine (IPA) salt: post-emergence, Tables II and III
Source text: (§2) The spray, a water solution containing active ingredient and a surfactant is applied to the plants in different sets of pans at several rates (kilogram per dunam) of active ingredient. The treated plants are placed in a greenhouse and the effects are observed and recorded after 4 days (table II) and after 2 weeks (table III). The post-emergence herbicidal activity index used in Table II and III is as follows: […]

Rubus Sanguineus = test: post-emergence herbicidal activity (spray, greenhouse); format: in vivo; conditions: after 2 weeks; spray to 21 day old plants; active ingredient mole/l: I 0.022, II 0.043, III 0.03, IV 0.043, V 0.043; note: key: 0: No injury; 1: Slight injury; 2: Moderate injury; 3: Severe injury; 4: Killed
Source text: as §2

Phragmites australis = test: as above; format: in vivo; conditions: after 2 weeks; spray to 21 day old plants; active ingredient mole/l: I 0.022, II 0.043, III 0.03, IV 0.043, V 0.043; note: key: 0: No injury; 1: Slight injury; 2: Moderate injury; 3: Severe injury; 4: Killed
Source text: as §2

Inula Viscosa = test: as above; format: in vivo; conditions: after 2 weeks; spray to 21 day old plants; active ingredient mole/l: I 0.022, II 0.043, III 0.03, IV 0.043, V 0.043; note: key: 0: No injury; 1: Slight injury; 2: Moderate injury; 3: Severe injury; 4: Killed
Source text: as §2

Avena sterilis = test: as above; format: in vivo; conditions: after 2 weeks; spray to 21 day old plants; active ingredient mole/l: I 0.022, II 0.043, III 0.03, IV 0.043, V 0.043; note: key: 0: No injury; 1: Slight injury; 2: Moderate injury; 3: Severe injury; 4: Killed
Source text: as §2

Polygonum equiseliforme = test: as above; format: in vivo; conditions: after 2 weeks; spray to 21 day old plants; active ingredient mole/l: I 0.022, II 0.043, III 0.03, IV 0.043, V 0.043
Source text: as §2

[3] = system: Agropyron repens (quackgrass); test: as above; format: in vivo; conditions: after 2 weeks; spray to 21 day old plants; active ingredient mole/l: I 0.022, II 0.043, III 0.03, IV 0.043, V 0.043
Source text: as §2

Pennisetum clandestinum = test: as above; format: in vivo; conditions: after 2 weeks; spray to 21 day old plants; active ingredient mole/l: I 0.022, II 0.043, III 0.03, IV 0.043, V 0.043
Source text: as §2

Convolvulus arvensis [4] = test: as above; format: in vivo; conditions: after 2 weeks; spray to 21 day old plants; active ingredient mole/l: I 0.022, II 0.043, III 0.03, IV 0.043, V 0.043
Source text: as §2

Cynodon daotylon = test: as above; format: in vivo; conditions: after 2 weeks; spray to 21 day old plants; active ingredient mole/l: I 0.022, II 0.043, III 0.03, IV 0.043, V 0.043
Source text: as §2

Cyperus Rotundus = format: in vivo; conditions: after 2 weeks; spray to 21 day old plants; active ingredient mole/l: I 0.022, II 0.043, III 0.03, IV 0.043, V 0.043
Source text: The spray, a water solution containing active ingredient and a surfactant is applied to the plants in different sets of pans at several rates (kilogram per dunam) of active ingredient. […] The post-emergence herbicidal activity index used in Table II and III is as follows: […]

[5] = herbicidal activity when applied to the soil (statement in the text); format: in vivo; conditions: soil application
[6] = rate 0.5 KG/HECTARE, two weeks after treatment
[7] = rate 1.5 KG/HECTARE, two weeks after treatment

O=C(O)CNCP(=O)(O)O [I, Di(3-amino-1,2,4-triazole)NPMG salt]
crystalization ([1]; at 0^oc): no crystalization
solubility ([1]; listed as NPMG-Diaminotriazole salt): at least 1000 g/1
inhibition at 500 g/ha (sinapis arvensis; [6]): 60%
inhibition at 1000 g/ha (sinapis arvensis; two weeks after treatment): 90%
inhibition at 500 g/ha (cynodon dactylon; [6]): 45%
inhibition at 1000 g/ha (cynodon dactylon; two weeks after treatment): 80%
inhibition at 500 g/ha (Convolvulus arvensis [2]; [6]): 80%
inhibition at 1000 g/ha (Convolvulus arvensis [2]; two weeks after treatment): 90%
antagonistic interaction (various plant species; applied to many species of weed, especially quackgrass): no antagonistic interaction
speed of phytotoxic action (knock down effect) (various plant species; first 4 days after application, compared with amine salt IV): faster phytotoxic action
herbicidal activity compared with the related amine (IPA) salt (various plant species): at least the same result

O=C(O)CN(CC(=O)O)CP(=O)(O)O [II, Di(3-amino-1,2,4-triazole)NPMIDA salt]
post-emergence herbicidal activity index, TABLE III, B (Rubus Sanguineus): 2
post-emergence herbicidal activity index, TABLE III, D (Phragmites australis): 3
post-emergence herbicidal activity index, TABLE III, C (Inula Viscosa): 3
post-emergence herbicidal activity index, TABLE III, H (Avena sterilis): 3
post-emergence herbicidal activity index, TABLE III, A (Polygonum equiseliforme): 3
post-emergence herbicidal activity index, TABLE III, J [3]: 2
post-emergence herbicidal activity index, TABLE III, E (Pennisetum clandestinum): 3
post-emergence herbicidal activity index, TABLE III, G (Convolvulus arvensis [4]): 2
post-emergence herbicidal activity index, TABLE III, F (Cynodon daotylon): 2
inhibition at 700 g/ha (sinapis arvensis): 65%
inhibition at 1200 g/ha (sinapis arvensis): 80%
inhibition at 700 g/ha (cynodon dactylon; read-out: % inhibition. A): 40%
inhibition at 1200 g/ha (cynodon dactylon; read-out: % inhibition. A): 70%
inhibition at 700 g/ha (Convolvulus arvensis [2]): 55%
inhibition at 1200 g/ha (Convolvulus arvensis [2]): 70%
herbicidal activity compared with the related amine (IPA) salt (various plant species): far more superior activity
post-emergence herbicidal activity index, TABLE III, I (Cyperus Rotundus): 3

CP(=O)(O)CCC(N)C(=O)O (stereo not drawn) [III, Di(3-amino-1,2,4-triazole)Phosphino-thricine salt.]
post-emergence herbicidal activity index, TABLE III, B (Rubus Sanguineus): 3
post-emergence herbicidal activity index, TABLE III, D (Phragmites australis): 2
post-emergence herbicidal activity index, TABLE III, C (Inula Viscosa): 3
post-emergence herbicidal activity index, TABLE III, H (Avena sterilis): 3
post-emergence herbicidal activity index, TABLE III, A (Polygonum equiseliforme): 3
post-emergence herbicidal activity index, TABLE III, J [3]: 3
post-emergence herbicidal activity index, TABLE III, E (Pennisetum clandestinum): 3
post-emergence herbicidal activity index, TABLE III, G (Convolvulus arvensis [4]): 3
post-emergence herbicidal activity index, TABLE III, F (Cynodon daotylon): 3
inhibition at 1000 g/ha (sinapis arvensis; two weeks after treatment): 30%
inhibition at 1500 g/ha (sinapis arvensis; [7]): 60%
inhibition at 1000 g/ha (cynodon dactylon; two weeks after treatment): 10%
inhibition at 1500 g/ha (cynodon dactylon; [7]): 20%
inhibition at 1000 g/ha (Convolvulus arvensis [2]; two weeks after treatment): 30%
inhibition at 1500 g/ha (Convolvulus arvensis [2]; [7]): 50%
post-emergence herbicidal activity index, TABLE III, I (Cyperus Rotundus): 3

O=C(O)CNCP(=O)(O)O [IV, Mono(Isopropylamine)NPMG salt (ROUNDUP^(R)), reference compound]
herbicidal activity when applied to the soil [5]: little herbicidal activity
crystalization ([1]; at lower temperature (0-S^oc)): crystalization of the salt may occur
solubility ([1]; listed as NPMG.IPA): 480 g/1

O=C(O)CN(CC(=O)O)CP(=O)(O)O [V, Mono(Isopropylamine)NPMIDA salt, reference compound]
post-emergence herbicidal activity index, TABLE III, B (Rubus Sanguineus): 1
post-emergence herbicidal activity index, TABLE III, D (Phragmites australis): 1
post-emergence herbicidal activity index, TABLE III, C (Inula Viscosa): 2
post-emergence herbicidal activity index, TABLE III, H (Avena sterilis): 1
post-emergence herbicidal activity index, TABLE III, A (Polygonum equiseliforme): 1
post-emergence herbicidal activity index, TABLE III, J [3]: 1
post-emergence herbicidal activity index, TABLE III, E (Pennisetum clandestinum): 1
post-emergence herbicidal activity index, TABLE III, G (Convolvulus arvensis [4]): 0
post-emergence herbicidal activity index, TABLE III, F (Cynodon daotylon): 0
post-emergence herbicidal activity index, TABLE III, I (Cyperus Rotundus): 1
